This test has as its target MCH receptor (Homo sapiens, UniProt Q99705). Nature of the test: High throughput functional screening FLIPR/FDSS6000: inhibition of MCH-evoked intracellular Ca2+ changes. In kind it is cell-based. To be noted: class by percent of control at 10^−7 M or by IC50; read-out: class. In a few lines:
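Fluo4 fluorescence (Ex 488 nm, Em 530 nm) tracked MCH-evoked [Ca2+]i transients over 290 s by FLIPR or FDSS. Cells carried a constitutively active, non-endogenous receptor version. Compounds were added 3 min before a 50 nM MCH challenge.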

The structures appear in SMILES notation.

Take `Cc1ccc(F)cc1CNC(=O)[C@H]1CC[C@@H](Nc2nc(N(C)C)c3ccccc3n2)CC1` [Example 1146, cis-4-{[4-(dimethylamino)quinazolin-2-yl]amino}-N-(5-fluoro-2-methylbenzyl)cyclohexanecarboxamide]: the IC50 was under 50 nM.

Regarding `CN(C)c1nc(N[C@H]2CC[C@@H](C(=O)NCc3c(F)ccc(Cl)c3F)CC2)nc2ccccc12` [Example 1147, cis-N-(3-chloro-2,6-difluorobenzyl)-4-{[4-(dimethylamino)quinazolin-2-yl]amino}cyclohexanecarboxamide], the IC50 is under 50 nM.

Turning to `CN(C)c1nc(N[C@H]2CC[C@@H](C(=O)NCc3cccc(-c4ccccc4)c3)CC2)nc2ccccc12` [Example 1148, cis-N-(biphenyl-3-ylmethyl)-4-{[4-(dimethylamino)quinazolin-2-yl]amino}cyclohexanecarboxamide], the IC50 is under 50 nM.

For the compound `Cc1ccc(Cl)c(CNC(=O)[C@H]2CC[C@@H](Nc3nc(N(C)C)c4ccccc4n3)CC2)c1F` [Example 1150, cis-N-(6-chloro-2-fluoro-3-methylbenzyl)-4-{[4-(dimethylamino)quinazolin-2-yl]amino}cyclohexanecarboxamide], the IC50 is under 50 nM.

As to `CN(C)c1nc(N[C@H]2CC[C@@H](C(=O)NCc3ccccc3F)CC2)nc2ccccc12` [Example 1151, cis-4-{[4-(dimethylamino)quinazolin-2-yl]amino}-N-(2-fluorobenzyl)cyclohexanecarboxamide], the IC50 is under 50 nM.

Consider `CN(C)c1nc(N[C@H]2CC[C@@H](C(=O)NCc3c(F)cccc3F)CC2)nc2ccccc12` [Example 1152, cis-N-(2,6-difluorobenzyl)-4-{[4-(dimethylamino)quinazolin-2-yl]amino}cyclohexanecarboxamide], for which the IC50 is under 50 nM.

As for `CN(C)c1nc(N[C@H]2CC[C@@H](C(=O)NCc3ccc(C(F)(F)F)cc3)CC2)nc2ccccc12` [Example 1153, cis-4-{[4-(dimethylamino)quinazolin-2-yl]amino}-N-[4-(trifluoromethyl)benzyl]cyclohexanecarboxamide], the IC50 was under 50 nM.

As to `CN(C)c1nc(N[C@H]2CC[C@@H](C(=O)NCc3cccc4ccccc34)CC2)nc2ccccc12` [Example 1154], the IC50 was under 50 nM.

For the compound `CN(C)c1nc(N[C@H]2CC[C@@H](C(=O)NCc3ccc(Cl)cc3)CC2)nc2ccccc12` [Example 1155, cis-N-(4-chlorobenzyl)-4-{[4-(dimethylamino)quinazolin-2-yl]amino}cyclohexanecarboxamide], the IC50 is under 50 nM.

For the compound `CN(C)c1nc(N[C@H]2CC[C@@H](C(=O)NCc3ccc(Cl)c(Cl)c3)CC2)nc2ccccc12` [Example 1156, cis-N-(3,4-dichlorobenzyl)-4-{[4-(dimethylamino)quinazolin-2-yl]amino}cyclohexanecarboxamide], the IC50 was under 50 nM.

As for `CN(C)c1nc(N[C@H]2CC[C@@H](C(=O)NCc3cccc(F)c3)CC2)nc2ccccc12` [Example 1157, cis-4-{[4-(dimethylamino)quinazolin-2-yl]amino}-N-(3-fluorobenzyl)cyclohexanecarboxamide], the IC50 was under 50 nM.

In the case of `CN(C)c1nc(N[C@H]2CC[C@@H](C(=O)NCc3cc(F)ccc3F)CC2)nc2ccccc12` [Example 1158, cis-N-(2,5-difluorobenzyl)-4-{[4-(dimethylamino)quinazolin-2-yl]amino}cyclohexanecarboxamide], the IC50 is under 50 nM.

In the case of `CN(C)c1nc(N[C@H]2CC[C@@H](C(=O)NCc3cccc(F)c3F)CC2)nc2ccccc12` [Example 1159, cis-N-(2,3-difluorobenzyl)-4-{[4-(dimethylamino)quinazolin-2-yl]amino}cyclohexanecarboxamide], the IC50 was under 50 nM.

As for `CN(C)c1nc(N[C@H]2CC[C@@H](C(=O)NCc3cccc(Br)c3)CC2)nc2ccccc12` [Example 1160, cis-N-(3-bromobenzyl)-4-{[4-(dimethylamino)quinazolin-2-yl]amino}cyclohexanecarboxamide], the IC50 is under 50 nM.

With `CN(C)c1nc(N[C@H]2CC[C@@H](C(=O)NCc3ccc(F)c(Br)c3)CC2)nc2ccccc12` [Example 1161, cis-N-(3-bromo-4-fluorobenzyl)-4-{[4-(dimethylamino)quinazolin-2-yl]amino}cyclohexanecarboxamide], the IC50 was under 50 nM.

With `CN(C)c1nc(N[C@H]2CC[C@@H](C(=O)NCc3ccc(Br)cc3F)CC2)nc2ccccc12` [Example 1162, cis-N-(4-bromo-2-fluorobenzyl)-4-{[4-(dimethylamino)quinazolin-2-yl]amino}cyclohexanecarboxamide], the IC50 is under 50 nM.

For `CN(C)c1nc(N[C@H]2CC[C@@H](C(=O)NCc3cc(Br)ccc3F)CC2)nc2ccccc12` [Example 1163, cis-N-(5-bromo-2-fluorobenzyl)-4-{[4-(dimethylamino)quinazolin-2-yl]amino}cyclohexanecarboxamide], the IC50 is under 50 nM.

Regarding `CN(C)c1nc(N[C@H]2CC[C@@H](C(=O)NCc3ccc(Cl)cc3F)CC2)nc2ccccc12` [Example 1164, cis-N-(4-chloro-2-fluorobenzyl)-4-{[4-(dimethylamino)quinazolin-2-yl]amino}cyclohexanecarboxamide], the IC50 is under 50 nM.

Consider `Cc1cccc(CNC(=O)[C@H]2CC[C@@H](Nc3nc(N(C)C)c4ccccc4n3)CC2)c1` [Example 1165, cis-4-{[4-(dimethylamino)quinazolin-2-yl]amino}-N-(3-methylbenzyl)cyclohexanecarboxamide], for which the IC50 was under 50 nM.

Consider `Cc1ccccc1CNC(=O)[C@H]1CC[C@@H](Nc2nc(N(C)C)c3ccccc3n2)CC1` [Example 1166, cis-4-{[4-(dimethylamino)quinazolin-2-yl]amino}-N-(2-methylbenzyl)cyclohexanecarboxamide], for which the IC50 is under 50 nM.

Take `CN(C)c1nc(N[C@H]2CC[C@@H](C(=O)NCc3ccccc3OC(F)(F)F)CC2)nc2ccccc12` [Example 1167, cis-4-{[4-(dimethylamino)quinazolin-2-yl]amino}-N-[2-(trifluoromethoxy)benzyl]cyclohexanecarboxamide]: the IC50 was under 50 nM.

As to `CN(C)c1nc(N[C@H]2CC[C@@H](C(=O)NCc3ccc(F)c(F)c3F)CC2)nc2ccccc12` [Example 1169, cis-4-{[4-(dimethylamino)quinazolin-2-yl]amino}-N-(2,3,4-trifluorobenzyl)cyclohexanecarboxamide], the IC50 is under 50 nM.

Regarding `CN(C)c1nc(N[C@H]2CC[C@@H](C(=O)NCc3cc(F)c(F)cc3F)CC2)nc2ccccc12` [Example 1170, cis-4-{[4-(dimethylamino)quinazolin-2-yl]amino}-N-(2,4,5-trifluorobenzyl)cyclohexanecarboxamide], the IC50 is under 50 nM.

On to `CN(C)c1nc(N[C@H]2CC[C@@H](C(=O)NCc3cc(F)c(F)c(F)c3)CC2)nc2ccccc12` [Example 1171, cis-4-{[4-(dimethylamino)quinazolin-2-yl]amino}-N-(3,4,5-trifluorobenzyl)cyclohexanecarboxamide], for which the IC50 is under 50 nM.

As for `CN(C)c1nc(N[C@H]2CC[C@@H](C(=O)NCc3c(F)ccc(F)c3F)CC2)nc2ccccc12` [Example 1172, cis-4-{[4-(dimethylamino)quinazolin-2-yl]amino}-N-(2,3,6-trifluorobenzy)cyclohexanecarboxamide], the IC50 is under 50 nM.

Regarding `CN(C)c1nc(N[C@H]2CC[C@@H](C(=O)NCc3cc(F)cc(C(F)(F)F)c3)CC2)nc2ccccc12` [Example 1173, cis-4-{[4-(dimethylamino)quinazolin-2-yl]amino}-N-[3-fluoro-5-(trifluoromethyl)benzyl]cyclohexanecarboxamide], the IC50 was under 50 nM.

As to `CN(C)c1nc(N[C@H]2CC[C@@H](C(=O)NCc3ccc(F)cc3C(F)(F)F)CC2)nc2ccccc12` [Example 1174, cis-4-{[4-(dimethylamino)quinazolin-2-yl]amino}-N-[4-fluoro-2-(trifluoromethyl)benzyl]cyclohexanecarboxamide], the IC50 was under 50 nM.

Regarding `CN(C)c1nc(N[C@H]2CC[C@@H](C(=O)NCc3ccc(C(F)(F)F)cc3F)CC2)nc2ccccc12` [Example 1175, cis-4-{[4-(dimethylamino)quinazolin-2-yl]amino}-N-[2-fluoro-4-(trifluoromethyl)benzyl]cyclohexanecarboxamide], the IC50 is under 50 nM.

Consider `CN(C)c1nc(N[C@H]2CC[C@@H](C(=O)NCc3ccc(F)c(C(F)(F)F)c3)CC2)nc2ccccc12` [Example 1176, cis-4-{[4-(dimethylamino)quinazolin-2-yl]amino}-N-[4-fluoro-3-(trifluoromethyl)benzyl]cyclohexanecarboxamide], for which the IC50 is under 50 nM.

On to `CN(C)c1nc(N[C@H]2CC[C@@H](C(=O)NCc3cccc(C(F)(F)F)c3F)CC2)nc2ccccc12` [Example 1177, cis-4-{[4-(dimethylamino)quinazolin-2-yl]amino}-N-[2-fluoro-3-(trifluoromethyl)benzyl]cyclohexanecarboxamide], for which the IC50 was under 50 nM.

On to `CN(C)c1nc(N[C@H]2CC[C@@H](C(=O)NCc3ccc(Cl)c(C(F)(F)F)c3)CC2)nc2ccccc12` [Example 1178, cis-N-[4-chloro-3-(trifluoromethyl)benzyl]-4-{[4-(dimethylamino)quinazolin-2-yl]amino}cyclohexanecarboxamide], for which the IC50 was under 50 nM.

Consider `CN(C)c1nc(N[C@H]2CC[C@@H](C(=O)NCc3c(F)cccc3Cl)CC2)nc2ccccc12` [Example 1179, cis-N-(2-chloro-6-fluorobenzyl)-4-{[4-(dimethylamino)quinazolin-2-yl]amino}cyclohexanecarboxamide], for which the IC50 was under 50 nM.

In the case of `CN(C)c1nc(N[C@H]2CC[C@@H](C(=O)NCc3ccc(F)c(Cl)c3)CC2)nc2ccccc12` [Example 1181, cis-N-(3-chloro-4-fluorobenzyl)-4-{[4-(dimethylamino)quinazolin-2-yl]amino}cyclohexanecarboxamide], the IC50 was under 50 nM.

Source of the values: patent US20070010671A1, “Novel quinazoline derivatives and methods of treatment related to the use thereof” (priority 2003, published 2007).
